pIC50: −log10 of the molar value. Converted amounts (≈) assume the structure as drawn. Read-outs that look alike come from different tables or passages of the source.
Tests used:
[1] = target: T1, HIV-1 reverse transcriptase (Human immunodeficiency virus type 1 group M subtype B, UniProt P04585); assay: Screening for the in vitro activity against the HIV-1 reverse transcriptase; format: biochemical
T1 construct: purchased
Summary of the method: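 Colorimetric RT activity assay: HIV-1 RT incorporates Biotin-dUTP into an immobilized template, detected with streptavidin-HRP at OD450. Samples were dissolved in DMSO, then serially diluted 5× in water to five concentrations, and incubated with enzyme and Biotin-dUTP in reaction buffer.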

[2] = target: T2, HIV-1 integrase (HIV-1 IN) (Human immunodeficiency virus type 1 group M subtype B, UniProt P04585); assay: Screening for the activity against HIV-1 integrase; format: biochemical; details: initial concentration 100 μg/ml; read-out: IC50
T2 construct: a purified HIV-1 integrase was added into each well; purchased
Summary of the method: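 Purified HIV-1 integrase with plate-bound 30-nt donor oligonucleotide and biotinylated 20-nt target oligonucleotide; samples tested at four 5-fold serial dilutions. Strand-transfer product detected by ELISA with biotin-labeled alkaline phosphatase, read as OD450.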

[3] = system: HL-60 human promyelocytic leukemia; assay: In vitro anti-tumor IC50 (MTT), HL-60; format: cell-based; details: Homo sapiens, HL-60; Table 4; read-out: IC50 (ug/ml) against tumor cell lines, HL-60
Method: (§1) (1) Single cell suspension was seeded into 96-well plates (the cells was diluted in the PRMI-1640 minimum medium to 3×10^4 cells/ml, […] diluted cells/well). […] The experiments were performed in quadruplicate.
(§2) (2) The medium was removed. Solutions of the anti-tumor agents (50 compounds) were prepared in a freshly prepared medium at serial concentrations. […] of the solution was added into each well. Incubation was continued for 48 hours.
(§3) (3) 20 ug of 2 mg/ml MTT was added into each well, and incubated for 4 hours.
(§4) (4) The medium was removed from the well. The microplates were swiftly turned down to throw-off the medium. […] of DMSO was added into each well, and vortexed at room temperature for 10 minutes.
(§5) (5) OD value (λ=570 nm) was measured with an Enzyme-Linked Detector.
(§6) (6) The graph of cell vitality was plotted, and IC50 was calculated.

[4] = system: U-937 human histocytic lymphoma; assay: In vitro anti-tumor IC50 (MTT), U-937; format: cell-based; details: Homo sapiens, U-937; Table 4; read-out: IC50 (ug/ml) against tumor cell lines, U-937
[5] = system: A-549 human lung adenocarcinoma; assay: In vitro inhibition rate to tumor cells (MTT), A-549; format: cell-based; details: for inhibition at 50 µg/mL: Homo sapiens
[6] = system: MCF-7 human mammary adenocarcinoma; assay: In vitro anti-tumor IC50 (MTT), MCF-7; format: cell-based; details: Homo sapiens, MCF7; Table 4; read-out: IC50 (ug/ml) against tumor cell lines, MCF
Method: as §1, §2, §3, §4, §5, §6

[7] = system: SMMC-7721 human hepatic carcinoma; assay: In vitro inhibition rate to tumor cells (MTT), SMMC-7721; format: cell-based; details: Homo sapiens
293 cells = assay: Cell status of 293 cells treated with sample alone (herpes virus screening); details: 200 μg/ml, 24 hrs
[8] = system: HL-60 human promyelocytic leukemia; assay: In vitro inhibition rate to tumor cells (MTT), HL-60; format: cell-based; details: for inhibition at 50 µg/mL: Homo sapiens
[9] = target: T3, HIV-1 proteinase (HIV-1 PR) (Human immunodeficiency virus type 1 group M subtype B, UniProt P04585); assay: Screening for in vitro activity against HIV-1 proteinase; format: biochemical; details: for inhibition at 50 µg/mL: read-out: Inhibition rate, 50 μg/ml
T3 construct: HIV-1 proteinase digests the fluorescent-labeled substrate; purchased
Summary of the method: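 Recombinant HIV-1 PR cleaves a fluorescent-labeled substrate in reaction buffer. Samples were dissolved in DMSO and serially diluted 5-fold in water (five dilutions), then added before the enzyme. Fluorescence of the product was read after incubation; indinavir was the positive control.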

[10] = system: LLC mouse Lewis lung carcinoma; assay: In vitro inhibition rate to tumor cells (MTT), LLC; format: cell-based; details: 50 μg/ml; for inhibition at 50 µg/mL: Mus musculus, Lewis lung carcinoma
[11] = IC50, initial concentration 200 μg/ml
[12] = A549, 50 μg/ml, Table 1, read-out: inhibition rate, Results (%) A-549
[13] = A549, 50 μg/ml, Table 2 (repeated screening), read-out: inhibition rate, Results (%) A-549
[14] = SMMC-7721, 50 μg/ml, Table 1, read-out: inhibition rate, Results (%) SMMC-7721
[15] = SMMC-7721, 50 μg/ml, Table 2 (repeated screening), read-out: inhibition rate, Results (%) SMMC-7721
[16] = HL-60, 50 μg/ml, Table 1, read-out: inhibition rate, Results (%) HL-60
[17] = HL-60, 50 μg/ml, Table 2 (repeated screening), read-out: inhibition rate, Results (%) HL-60
[18] = 0.08 μg/ml, read-out: Inhibition rate
[19] = 2.0 μg/ml, read-out: Inhibition rate
[20] = 10 μg/ml, read-out: Inhibition rate
[21] = IC50, five 5× serial dilutions from 50 μg/ml
[22] = 50 μg/ml, Table 3 (repeated screening)

Structure (SMILES) | pIC50 [1, 11] | inhibition at 100 µg/mL [2] [%] | IC50 [3] [µg/mL] | IC50 [4] [µg/mL] | inhibition at 50 µg/mL [5, 12] [%] | inhibition at 50 µg/mL [5, 13] [%] | IC50 [6] [µg/mL] | inhibition at 50 µg/mL [7, 14] [%] | inhibition at 50 µg/mL [7, 15] [%] | Cytopathy and cell status, Sample (293 cells) | inhibition at 50 µg/mL [8, 16] [%] | inhibition at 50 µg/mL [8, 17] [%] | inhibition at 0.08 µg/mL [9, 18] [%] | inhibition at 2 µg/mL [9, 19] [%] | inhibition at 10 µg/mL [9, 20] [%] | pIC50 [9, 21] | inhibition at 50 µg/mL [9] [%] | inhibition at 50 µg/mL ([10]; Table 2 (repeated screening)) [%] | Inhibition rate ([9]; 0.40 μg/ml) | inhibition rate, Results (%) LLC ([10]; Table 1) [%] | also measured
CC(C)C1CC23OC1(O)CC(=CBr)C2CCC3C (stereo not drawn) [Compound 17, Curcumol monobromide] | < 3.20 | < 50 | 1.85 | 0.92 | 4.68 | 5.23 | 4.63 | 10.2 | 0.32 | Good | 92.3 | 90.1 | 3.78 | -6 | 6.15 | < 3.80 | 9.94 | 2.31 |  |  | inhibition at 0.4 µg/mL ([9]; 0.40 μg/ml, read-out: Inhibition rate): 10.7%; inhibition at 50 µg/mL ([10]; Table 1): 7.27%
CC(C)C1CC23OC1(O)CC(=CN1CCNCC1)C2CCC3C (stereo not drawn) [Compound 7, Curcumol piperazine] | < 3.20 | < 50 | 1.61 (≈ 5.02 µM) | 0.76 (≈ 2.37 µM) | 65.3 | 67.2 | 3.2 (≈ 9.99 µM) | 3.34 | 1.23 | Good | 90.6 | 91 | 14.1 | 4.31 |  | < 3.81 | 1.43 |  | 6.32 | 85.42 | inhibition at 50 µg/mL ([5]; A549, 50 μg/ml, Table 3 (repeated screening), read-out: inhibition rate, Results (%) A-549): 65.3%; inhibition at 50 µg/mL ([8]; HL-60, 50 μg/ml, Table 3 (repeated screening), read-out: inhibition rate, Results (%) HL-60): 90.2%; Inhibition rate ([9]; 10 μg/ml): 3.51; inhibition rate, Results (%) LLC ([10]; Table 2 (repeated screening)): −2.99%; inhibition rate, Results (%) LLC ([10]; Table 3 (repeated screening)): −3.66%
CC(C)C1CC23OC1(O)C/C(=C\Nc1ccc(O)cc1)C2CCC3C (stereo not drawn) [Compound 5, Curcumol p-hydroxy aniline] |  | < 50 | 0.4 (≈ 1.16 µM) | 0.42 (≈ 1.22 µM) |  | 90 | 1 (≈ 2.91 µM) |  | 86.9 | Good |  | 90.9 |  |  | 11.2 |  |  | 85.1 | 9.00 | 3.21 | pIC50 ([1]; initial concentration 200 μg/ml, read-out: IC50): < 3.23; inhibition rate, Results (%) A-549 [5, 22]: 91.23%; inhibition at 50 µg/mL ([5]; A549, read-out: inhibition rate, Results (%) A-549, 50 μg/ml, Table 1): 90.3%; inhibition at 50 µg/mL ([7]; SMMC-7721, read-out: inhibition rate, Results (%) SMMC-7721, 50 μg/ml, Table 1): 85%; inhibition rate, Results (%) HL-60 [8, 22]: 95.14%; inhibition at 50 µg/mL ([8]; HL-60, read-out: inhibition rate, Results (%) HL-60, 50 μg/ml, Table 1): 91.3%; Inhibition rate ([9]; 0.08 μg/ml): 4.38; Inhibition rate ([9]; 2.0 μg/ml): 10.30; Inhibition rate ([9]; 50 μg/ml): 1.01; pIC50 ([9]; five 5× serial dilutions from 50 μg/ml, read-out: IC50): < 3.84; inhibition rate, Results (%) LLC ([10]; Table 3 (repeated screening)): 86.54%
